In the NIST ThermoML archive (doi:10.1016/j.jct.2018.04.019):
± gives the expanded uncertainty stated by the source.

Settings: Liquid, Vibrating tube method

Cc1ccccc1 [toluene]
Settings | mass density [kg/m3]
283.16 K, 1020 kPa | 876.55 ± 0.61
283.16 K, 5010 kPa | 879.36 ± 0.61
283.16 K, 10030 kPa | 882.78 ± 0.61
283.16 K, 15050 kPa | 886.11 ± 0.62
283.16 K, 20080 kPa | 889.23 ± 0.62
283.16 K, 25060 kPa | 892.35 ± 0.62
283.16 K, 30040 kPa | 895.27 ± 0.63
283.16 K, 35080 kPa | 898.24 ± 0.63
283.16 K, 40060 kPa | 901.05 ± 0.64
283.16 K, 45050 kPa | 903.77 ± 0.64
283.16 K, 50010 kPa | 906.43 ± 0.64
283.16 K, 55060 kPa | 909.09 ± 0.65
283.16 K, 60030 kPa | 911.65 ± 0.65
283.16 K, 65050 kPa | 914.15 ± 0.65
298.15 K, 1040 kPa | 862.88 ± 0.61
298.15 K, 5040 kPa | 865.93 ± 0.61
298.15 K, 10030 kPa | 869.6 ± 0.61
298.15 K, 15050 kPa | 873.21 ± 0.62
298.15 K, 20040 kPa | 876.63 ± 0.62
298.15 K, 25050 kPa | 879.93 ± 0.63
298.15 K, 30060 kPa | 883.14 ± 0.63
298.15 K, 35020 kPa | 886.25 ± 0.64
298.15 K, 40040 kPa | 889.26 ± 0.64
298.15 K, 45070 kPa | 892.2 ± 0.65
298.15 K, 50040 kPa | 895.06 ± 0.65
298.15 K, 55040 kPa | 897.86 ± 0.66
298.15 K, 60030 kPa | 900.56 ± 0.66
298.15 K, 65020 kPa | 903.2 ± 0.67
323.15 K, 1050 kPa | 839.46 ± 0.61
323.15 K, 5050 kPa | 843.04 ± 0.61
323.15 K, 10030 kPa | 847.29 ± 0.62
323.15 K, 15010 kPa | 851.38 ± 0.62
323.15 K, 20010 kPa | 855.27 ± 0.63
323.15 K, 25060 kPa | 859.05 ± 0.64
323.15 K, 30080 kPa | 862.69 ± 0.64
323.15 K, 35020 kPa | 866.13 ± 0.65
323.15 K, 40010 kPa | 869.52 ± 0.66
323.15 K, 45060 kPa | 872.84 ± 0.66
323.15 K, 50010 kPa | 875.93 ± 0.67
323.15 K, 55010 kPa | 879.01 ± 0.68
323.15 K, 60050 kPa | 882.04 ± 0.68
323.15 K, 65030 kPa | 884.91 ± 0.69
348.15 K, 1060 kPa | 815.55 ± 0.61
348.15 K, 5070 kPa | 819.75 ± 0.62
348.15 K, 10010 kPa | 824.67 ± 0.62
348.15 K, 15030 kPa | 829.43 ± 0.63
348.15 K, 20030 kPa | 833.88 ± 0.64
348.15 K, 25020 kPa | 838.2 ± 0.64
348.15 K, 30080 kPa | 842.3 ± 0.65
348.15 K, 35050 kPa | 846.21 ± 0.66
348.15 K, 40050 kPa | 849.97 ± 0.67
348.15 K, 45070 kPa | 853.63 ± 0.68
348.15 K, 50020 kPa | 857.09 ± 0.69
348.15 K, 55060 kPa | 860.49 ± 0.7
348.15 K, 60040 kPa | 863.8 ± 0.7
348.15 K, 65070 kPa | 867 ± 0.71
373.15 K, 1050 kPa | 790.86 ± 0.61
373.15 K, 5020 kPa | 795.87 ± 0.62
373.15 K, 10040 kPa | 801.74 ± 0.63
373.15 K, 15040 kPa | 807.26 ± 0.63
373.15 K, 20030 kPa | 812.38 ± 0.64
373.15 K, 25080 kPa | 817.35 ± 0.65
373.15 K, 30070 kPa | 821.93 ± 0.66
373.15 K, 35040 kPa | 826.36 ± 0.68
373.15 K, 40040 kPa | 830.59 ± 0.69
373.15 K, 45030 kPa | 834.57 ± 0.7
373.15 K, 50040 kPa | 838.5 ± 0.71
373.15 K, 55040 kPa | 842.23 ± 0.72
373.15 K, 60010 kPa | 845.81 ± 0.73
398.15 K, 1070 kPa | 765.25 ± 0.62
398.15 K, 5030 kPa | 771.26 ± 0.62
398.15 K, 10040 kPa | 778.22 ± 0.63
398.15 K, 15080 kPa | 784.74 ± 0.64
398.15 K, 20010 kPa | 790.62 ± 0.65
398.15 K, 25050 kPa | 796.25 ± 0.67
398.15 K, 30040 kPa | 801.49 ± 0.68
398.15 K, 35040 kPa | 806.48 ± 0.69
398.15 K, 40020 kPa | 811.17 ± 0.7
398.15 K, 45040 kPa | 815.71 ± 0.72
398.15 K, 50020 kPa | 819.96 ± 0.73
398.15 K, 55040 kPa | 824.15 ± 0.74
398.15 K, 60020 kPa | 828.11 ± 0.75
398.15 K, 65080 kPa | 831.99 ± 0.77
423.15 K, 1050 kPa | 738.06 ± 0.62
423.15 K, 5030 kPa | 745.45 ± 0.63
423.15 K, 10060 kPa | 753.93 ± 0.64
423.15 K, 15030 kPa | 761.54 ± 0.65
423.15 K, 20000 kPa | 768.41 ± 0.66
423.15 K, 25020 kPa | 774.89 ± 0.68
423.15 K, 30020 kPa | 780.87 ± 0.69
423.15 K, 35060 kPa | 786.56 ± 0.71
423.15 K, 40020 kPa | 791.82 ± 0.72
423.15 K, 45040 kPa | 796.87 ± 0.74
423.15 K, 50040 kPa | 801.63 ± 0.75
423.15 K, 55060 kPa | 806.24 ± 0.77
423.15 K, 60040 kPa | 810.55 ± 0.78
423.15 K, 65050 kPa | 814.77 ± 0.8
448.15 K, 1040 kPa | 708.96 ± 0.63
448.15 K, 5070 kPa | 718.48 ± 0.63
448.15 K, 10040 kPa | 728.71 ± 0.65
448.15 K, 15070 kPa | 737.86 ± 0.66
448.15 K, 20050 kPa | 745.94 ± 0.68
448.15 K, 25050 kPa | 753.39 ± 0.69
448.15 K, 30040 kPa | 760.21 ± 0.71
448.15 K, 35040 kPa | 766.59 ± 0.73
448.15 K, 40020 kPa | 772.48 ± 0.75
448.15 K, 45030 kPa | 778.13 ± 0.76
448.15 K, 50030 kPa | 783.39 ± 0.78
448.15 K, 55060 kPa | 788.44 ± 0.8
448.15 K, 60010 kPa | 793.17 ± 0.81
448.15 K, 65060 kPa | 797.83 ± 0.83
473.15 K, 1030 kPa | 676.8 ± 0.63
473.15 K, 5050 kPa | 689.34 ± 0.64
473.15 K, 10050 kPa | 702.19 ± 0.66
473.15 K, 15060 kPa | 713.2 ± 0.68
473.15 K, 20020 kPa | 722.73 ± 0.69
473.15 K, 25040 kPa | 731.39 ± 0.71
473.15 K, 30010 kPa | 739.18 ± 0.73
473.15 K, 35040 kPa | 746.42 ± 0.75
473.15 K, 40050 kPa | 753.09 ± 0.77
473.15 K, 45060 kPa | 759.38 ± 0.79
473.15 K, 50050 kPa | 765.18 ± 0.81
473.15 K, 55020 kPa | 770.69 ± 0.83
473.15 K, 60030 kPa | 775.95 ± 0.85
473.15 K, 65020 kPa | 780.92 ± 0.87
